Laboratory results from the RepoRT retention time repository.
Structures can show the parent of a compound that is named as a salt.

Test: RP, Thermo Scientific Hypersil GOLD, 1.9 µm, 40 °C, 0.4 mL/min; A: water + 0.1% formic acid, pH 3; B: acetonitrile + 0.1% formic acid, pH 3; gradient (min/%B) 0/0 1/0 11/100 13/100 14/0 16/0
Conditions: stereoisomer not certain

Compound	LC retention time [min]
CCCC(N)C(=O)O (stereo unspecified) [NORVALINE]	0.82
NCCS(=O)O [HYPOTAURINE]	0.63
O=C(O)CCCCCCCCCC(=O)O [undecanedioic acid]	7.15
O=S(=O)(O)c1ccc(O)c(O)c1 [3-4-dihydroxybenzenesulfonic acid]	0.84
CCCCCCCCCC(=O)OCC(COP(=O)([O-])OCC[N+](C)(C)C)OC(=O)CCCCCCCCC (stereo unspecified) [DIDECANOYL-GLYCEROPHOSPHOCHOLINE]	11.1
CS(=N)(=O)CCC(N)C(=O)O (stereo unspecified) [METHIONINE SULFOXIMINE]	0.62
COC1=C(OC)C(=O)C(CC=C(C)CCC=C(C)C)=C(C)C1=O [coenzyme Q2]	11
Cc1ncc(C[n+]2csc(CCOP(=O)([O-])OP(=O)(O)O)c2C)c(N)n1 [THIAMINE PYROPHOSPHATE]	0.65
Cc1cn(C2CC(O)C(CO)O2)c(=O)[nH]c1=O (stereo unspecified) [THYMIDINE]	3.68
CC1C(=O)Nc2ccccc21 (stereo unspecified) [3-METHYL-2-OXINDOLE]	6.25
NC(=O)c1cccnc1 [NICOTINAMIDE]	0.83
CCCCCCCCC=CCCCCCCCCCCCC(=O)O [ERUCATE]	13.5
CC(C)(CC(=O)O)CC(=O)O [3-3-Dimethylglutaric acid]	5.04
CC(=O)NC(Cc1ccccc1)C(=O)O (stereo unspecified) [N-ACETYLPHENYLALANINE]	5.73
O=C/C=C/c1ccccc1 [Trans-Cinnamaldehyde]	7.27
CC(=O)OC(CC(=O)[O-])C[N+](C)(C)C (stereo not drawn) [o-acetyl-l-carnitine hydrochloride]	0.81
CCCCCCCCCC(=O)OC(CC(=O)[O-])C[N+](C)(C)C [Decanoyl-L-carnitine]	7.63
O=C(O)CCCCCCCCC(=O)O [Sebacic acid]	6.67
Nc1ccnc(=O)[nH]1 [CYTOSINE]	0.65
Nc1ccn(C2OC(CO)C(O)C2O)c(=O)n1 (stereo unspecified) [CYTIDINE]	0.78
C=C(C)C1CC=C(CO)CC1 [(S)-(-)-Perillyl alcohol]	8.07
C=CC1=C(C)C(C=c2[nH]c(=Cc3[nH]c(C=C4NC(=O)C(C)=C4C=C)c(C)c3CCC(=O)O)c(CCC(=O)O)c2C)=NC1=O [BILIVERDIN]	7.99
Cc1cc2nc[nH]c2cc1C [5-6 DIMETHYLBENZIMIDAZOLE]	5.05
[NH3+]C(C(=O)[O-])C(O)c1ccccc1 (racemic) [L-Threo-3-Phenylserine (DL-3-Phenylserine)]	1.14

Compound	LC retention time [min]
O=c1ccn(C2OC(COP(=O)(O)O)C(O)C2O)c(=O)[nH]1 (stereo unspecified) [URIDINE MONOPHOSPHATE]	0.76
CC(C)=CCNc1ncnc2nc[nH]c12 [N6-(DELTA2-ISOPENTENYL)-ADENINE]	5.26
O=C(O)CCCCCCCCCCCO [OMEGA-HYDROXYDODECANOATE]	7.84
NC1C(O)OC(COS(=O)(=O)O)C(O)C1O (stereo unspecified) [GLUCOSAMINE 6-SULFATE]	0.62
CC(CC(=O)O)C(=O)O (stereo unspecified) [Methyl-succinic acid]	3.66
NC(=O)c1ccc[n+](C2OC(COP(=O)(O)OP(=O)(O)OCC3OC(n4cnc5c(=O)[nH]cnc54)C(O)C3O)C(O)C2O)c1 (stereo unspecified) [NICOTINAMIDE HYPOXANTHINE DINUCLEOTIDE]	0.82
O=C(O)c1ccc[n+]([O-])c1 [Nicotinic acid N-oxide]	0.83
Cc1c[nH]c(=O)[nH]c1=O [THYMINE]	1.47
O=C(O)CCCC(=O)C(=O)O [2-OXOADIPATE]	1.05
Oc1ccc2[nH]ccc2c1 [5-Hydroxyindole]	4.72
O=C(O)CCc1ccccc1 [hydrocinnamic acid]	6.87
Cn1cc(C(N)=O)ccc1=O [N-methyl-2-pyridone-5-carboxamide]	1.6
O=C(O)c1ccc(=O)[nH]c1 [6-HYDROXYNICOTINATE]	1.5
CCCCCCCCCCCC=CCCCCC(=O)[O-] [PETROSELINATE]	12.5
NC(=O)C[C@H](N)C(=O)O [L-Asparagine]	0.62
CC(C)(CC(=O)O)C(=O)O [2-2-Dimethylsuccinic acid]	4.85
O=C(O)c1cccnc1 [Nicotinic acid]	0.81
O=c1[nH]cnc2nc[nH]c12 [HYPOXANTHINE]	0.83
C[Se]CCC(N)C(=O)O (stereo unspecified) [SELENOMETHIONINE]	0.92
O=C(O)c1cncc(O)c1 [5-Hydroxynicotinic acid]	0.83
Cc1ncc(COP(=O)(O)O)c(C=O)c1O [PYRIDOXAL-PHOSPHATE]	0.83
NC(CS(=O)O)C(=O)O (stereo unspecified) [3-SULFINOALANINE]	0.67
O=C([O-])C(O)c1ccccc1 (stereo unspecified) [MANDELATE]	4.72
CC(N)(Cc1cnc[nH]1)C(=O)O (racemic) [Alpha-methyl-DL-histidine dihydrochloride]	0.61

Compound	LC retention time [min]
CC(=O)NC(CCCC[NH3+])C(=O)[O-] (stereo not drawn) [N-ALPHA-ACETYLLYSINE]	0.72
O=C(CO)COP(=O)(O)O [DIHYDROXYACETONE PHOSPHATE]	0.69
CNCCc1c[nH]c2ccccc12 [N-METHYLTRYPTAMINE]	4.93
O=C(O)c1ccc(O)c(O)c1 [3-4-DIHYDROXYBENZOATE]	3.49
CC(CCC(=O)O)C1CCC2C3CCC4CC(O)CCC4(C)C3CC(O)C12C (stereo unspecified) [deoxycholic acid]	9.28
CC(=O)NC(C)C(=O)O (stereo unspecified) [N-ACETYLALANINE]	1.24
O=P(O)(O)OC(CO)CO [BETA-GLYCEROPHOSPHATE]	0.67
CN(C)c1ccc(N)cc1 [N-N-DIMETHYL-1-4-PHENYLENEDIAMINE]	0.83
CC(C)CC(O)C(=O)O (stereo unspecified) [2-Hydroxyisocaproic acid]	6.31
CCCCCCCCCCCCCC=CC(O)C(CO)NC(C)=O [N-Acetyl-D-sphingosine]	10.8
COc1cc(CC(=O)O)ccc1O [HOMOVANILLATE]	5.13
C[N+](C)(C)CC(=O)[O-] [BETAINE]	0.65
O=C(O)C(=O)Cc1ccccc1 [PHENYLPYRUVATE]	5.26
O=c1[nH]cnc2c1ncn2C1OC(CO)C(O)C1O (stereo unspecified) [INOSINE]	1.53
O=CCC(O)C(O)CO (stereo unspecified)	0.82
OCC1OC(OCC2OC(OCC3OC(OC4(CO)OC(CO)C(O)C4O)C(O)C(O)C3O)C(O)C(O)C2O)C(O)C(O)C1O (stereo unspecified) [STACHYOSE]	0.67
O=c1ccn(C2OC(COP(=O)(O)OP(=O)(O)OP(=O)(O)O)C(O)C2O)c(=O)[nH]1 (stereo unspecified) [URIDINE TRIPHOSPHATE]	0.6
CC(O)(CCO)CC(=O)[O-] (stereo unspecified) [MEVALONATE]	0.55
CC(=O)C(=O)O [pyruvic acid]	0.78
N[C@@H](CCC(=O)O)C(=O)O [L-Glutamic acid]	0.65
NC(N)=NCCCC(=O)O [4-GUANIDINOBUTANOATE]	0.84
Nc1nc2nc[nH]c2c(=O)[nH]1 [GUANINE]	0.78
Nc1ncnc2c1ncn2C1CC(O)C(COP(=O)(O)O)O1 (stereo unspecified) [DEOXYADENOSINE MONOPHOSPHATE]	0.84
NC(=O)c1ccccc1O [SALICYLAMIDE]	5.33

Compound	LC retention time [min]
CC(C)=CC(=O)OC(CC(=O)[O-])C[N+](C)(C)C [3-Methylcrotonyl-L-carnitine]	4.71
CC(=O)NC(CS)C(=O)O (stereo unspecified) [N-ACETYLCYSTEINE]	1.9
NCC(O)c1ccc(O)c(O)c1 (stereo unspecified) [NORADRENALINE]	0.65
Nc1cc([O-])cc(C(=O)O)c1 [3-AMINO-5-HYDROXYBENZOATE]	0.81
CC(CCC(=O)O)C(=O)O (stereo unspecified) [2-METHYLGLUTARATE]	4.4
NC(=O)CCCCC1CCSS1 (stereo unspecified) [LIPOAMIDE]	6.53
COc1cc(C=CC(=O)O)ccc1O [FERULATE]	5.67
CC(C)C(O)(CC(=O)O)C(=O)O (stereo unspecified) [2-Isopropylmalic acid]	4.79
CC(=O)OCC(=O)C1CCC2C3CCC4=CC(=O)CCC4(C)C3CCC12C (stereo unspecified) [DEOXYCORTICOSTERONE ACETATE]	9.25
C=C1CCC(O)CC1=CC=C1CCCC2(C)C1CCC2C(C)C=CC(C)C(C)C (stereo unspecified) [VITAMIN D2]	13.9
COc1cc(CCN)ccc1O [3-METHOXYTYRAMINE]	2.47
[NH3+]CC(=O)N1CCCC1C(=O)[O-] (stereo unspecified) [Gly-Pro]	0.82
O=CNCC(=O)O [N-FORMYLGLYCINE]	0.74
O=C(O)c1cc[n+]([O-])cc1 [Isonicotinic acid N-oxide]	0.81
Cn1cnc2[nH]c(=O)[nH]c(=O)c21 [7-Methylxanthine]	2.15
O=C(O)/C=C/c1cccc(O)c1 [trans-3-Hydroxycinnamic acid (m-Coumaric acid)]	5.82
CC(C)CC(=O)NCC(=O)O [Isovaleroylglycine]	4.6
Nc1ncnc2c1ncn2C1OC(COP(=O)(O)O)C(O)C1O (stereo unspecified) [ADENOSINE-MONOPHOSPHATE]	0.77
Cn1c(=O)c2c(ncn2C)n(C)c1=O [CAFFEINE]	4.85
CCCCCCCCCCCCCCC=COCC(O)COP(=O)([O-])OCC[N+](C)(C)C (stereo unspecified) [C16_PlasmLPC]	10.5
CC1OC(n2cnc3c(N)ncnc32)C(O)C1O (stereo unspecified) [5'-DEOXYADENOSINE]	3.66
Cn1c(=O)[nH]c(=O)c2[nH]cnc21 [3-Methylxanthine]	2.61
OCC1OC(OC2(CO)OC(CO)C(O)C2O)C(O)C(O)C1O (stereo unspecified) [SUCROSE]	0.69
CCCCC(N)C(=O)O (stereo unspecified) [NORLEUCINE]	1.67
